How the values were obtained:
c-Kit kinase = c-Kit kinase (Homo sapiens, UniProt P10721); assay: c-Kit kinase biochemical activity assay (AlphaScreen, biotin-(E4Y)10 phosphorylation); details: 100 μM ATP; read-out: Biochemical Inhibition IC50 Kit
Method in brief: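 Phosphorylation of 30 nM biotin-(E4Y)10 by c-Kit (0.75 ng per reaction) with 100 µM ATP in HEPES pH 7.5 buffer with Mg2+/Mn2+, 5% DMSO, 1 h at room temperature; 8-point 1:2 compound dilutions. AlphaScreen detection with streptavidin donor and PY20 acceptor beads after EDTA stop. IC50 from signal versus concentration.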

CYP2C9 = CYP2C9 (Homo sapiens, UniProt P11712); assay: CYP2C9 inhibition (fluorescent substrate MFC); type: in vitro ADME; details: read-out: Cyp IC50 2C9
Method in brief: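 Compounds, serially diluted 1:1 over 10 points in NADPH-regenerating cofactor mix with 5% acetonitrile, were preincubated 10 min at 37 °C, then run with enzyme and substrate at 37 °C (CYP1A2 15 min; CYP2C9 45 min; CYP2C19, CYP2D6 30 min). Product fluorescence gave IC50s.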

Sequence of c-Kit kinase (P10721 26-976): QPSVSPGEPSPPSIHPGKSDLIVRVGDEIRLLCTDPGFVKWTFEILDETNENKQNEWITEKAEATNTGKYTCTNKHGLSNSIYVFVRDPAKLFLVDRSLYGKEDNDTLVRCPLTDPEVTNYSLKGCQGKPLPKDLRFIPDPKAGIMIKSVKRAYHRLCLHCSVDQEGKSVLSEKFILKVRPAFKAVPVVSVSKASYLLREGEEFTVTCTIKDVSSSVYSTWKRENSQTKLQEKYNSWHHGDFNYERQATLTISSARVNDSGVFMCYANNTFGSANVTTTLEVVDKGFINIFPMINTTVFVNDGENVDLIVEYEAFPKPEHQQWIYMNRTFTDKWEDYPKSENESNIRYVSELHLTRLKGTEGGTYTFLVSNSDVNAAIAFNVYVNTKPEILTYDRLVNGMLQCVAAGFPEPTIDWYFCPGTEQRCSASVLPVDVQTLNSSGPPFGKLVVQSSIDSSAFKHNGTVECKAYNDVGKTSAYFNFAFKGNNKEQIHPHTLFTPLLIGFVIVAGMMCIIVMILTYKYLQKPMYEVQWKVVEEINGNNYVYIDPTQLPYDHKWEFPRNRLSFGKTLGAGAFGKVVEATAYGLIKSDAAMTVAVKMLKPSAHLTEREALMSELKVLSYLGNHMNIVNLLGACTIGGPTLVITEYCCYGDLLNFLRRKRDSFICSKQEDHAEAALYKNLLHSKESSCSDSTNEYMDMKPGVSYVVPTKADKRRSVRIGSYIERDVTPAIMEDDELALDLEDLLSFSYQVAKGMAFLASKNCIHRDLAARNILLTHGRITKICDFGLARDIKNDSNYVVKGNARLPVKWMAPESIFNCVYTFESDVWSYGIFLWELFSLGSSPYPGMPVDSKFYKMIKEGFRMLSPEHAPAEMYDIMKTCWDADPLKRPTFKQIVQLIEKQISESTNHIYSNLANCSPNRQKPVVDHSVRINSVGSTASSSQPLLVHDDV
Sequence of CYP2C9 (P11712 whole entry): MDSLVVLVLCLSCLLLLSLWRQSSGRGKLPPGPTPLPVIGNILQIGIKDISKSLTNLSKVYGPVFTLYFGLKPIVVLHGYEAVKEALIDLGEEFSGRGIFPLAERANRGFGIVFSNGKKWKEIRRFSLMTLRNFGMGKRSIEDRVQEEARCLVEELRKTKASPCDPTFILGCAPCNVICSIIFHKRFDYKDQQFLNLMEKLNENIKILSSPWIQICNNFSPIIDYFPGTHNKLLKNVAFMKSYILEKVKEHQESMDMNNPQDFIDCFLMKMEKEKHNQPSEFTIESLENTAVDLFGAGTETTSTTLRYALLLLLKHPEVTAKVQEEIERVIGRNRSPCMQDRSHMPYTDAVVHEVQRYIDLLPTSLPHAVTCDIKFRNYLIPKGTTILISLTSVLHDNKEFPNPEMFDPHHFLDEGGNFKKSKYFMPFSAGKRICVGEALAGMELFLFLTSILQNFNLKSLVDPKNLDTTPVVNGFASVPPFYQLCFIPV

Row | IC50 (c-Kit kinase) | IC50 (CYP2C9) | Structure (SMILES)
1 | < 1 µM | > 10 µM | CCOc1ccc(Nc2ccc(C(=O)c3c[nH]c4ncnc(OC)c34)c(F)n2)cn1 [Compound P-4024, [6-(6-Ethoxy-pyridin-3-ylamino)-2-fluoro-pyridin-3-yl]-(4-methoxy-7H-pyrrolo[2,3-d]pyrimidin-5-yl)-methanone]
2 | < 0.1 µM | > 10 µM | Fc1nc(Nc2ccc(C3CC3)nc2)ccc1Cc1c[nH]c2ncccc12 [Compound P-3053, (6-Cyclopropyl-pyridin-3-yl)-[6-fluoro-5-(1H-pyrrolo[2,3-b]pyridin-3-ylmethyl)-pyridin-2-yl]-amine]
3 | < 1 µM | > 10 µM | COCCOc1ncnc2[nH]cc(Cc3ccc(Nc4ccc(OC)nc4)nc3F)c12 [Compound P-4019, {6-Fluoro-5-[4-(2-methoxy-ethoxy)-7H-pyrrolo[2,3-d]pyrimidin-5-ylmethyl]-pyridin-2-yl}-(6-methoxy-pyridin-3-yl)-amine]
4 | < 1 µM | > 10 µM | Cc1cnc2[nH]cc(C(=O)c3ccc(Nc4ccc(C)nc4)nc3F)c2c1 [Compound P-3043, [2-Fluoro-6-(6-methyl-pyridin-3-ylamino)-pyridin-3-yl]-(5-methyl-1H-pyrrolo[2,3-b]pyridin-3-yl)-methanone]
5 | < 0.1 µM | > 10 µM | CCOc1ncnc2[nH]cc(Cc3ccc(Nc4ccc(C)nc4)nc3F)c12 [Compound P-4017, [5-(4-Ethoxy-7H-pyrrolo[2,3-d]pyrimidin-5-ylmethyl)-6-fluoro-pyridin-2-yl]-(6-methyl-pyridin-3-yl)-amine]
6 | < 0.1 µM | > 10 µM | CCOc1ncnc2[nH]cc(Cc3ccc(Nc4ccc(OC)nc4)nc3F)c12 [Compound P-4018, [5-(4-Ethoxy-7H-pyrrolo[2,3-d]pyrimidin-5-ylmethyl)-6-fluoro-pyridin-2-yl]-(6-methoxy-pyridin-3-yl)-amine]
7 | < 1 µM | > 10 µM | CCOc1ncnc2[nH]cc(Cc3ccc(Nc4cnn(CC)c4)nc3F)c12 [Compound P-4012, [5-(4-Ethoxy-7H-pyrrolo[2,3-d]pyrimidin-5-ylmethyl)-6-fluoro-pyridin-2-yl]-(1-ethyl-1H-pyrazol-4-yl)-amine]
8 | > 1 µM | > 10 µM | Fc1nc(NC2CCC(F)(F)CC2)ccc1Cc1c[nH]c2ncnc(NCC(F)(F)F)c12 [Compound P-4128, 5-[[6-[(4,4-difluorocyclohexyl)amino]-2-fluoro-3-pyridyl]methyl]-N-(2,2,2-trifluoroethyl)-7H-pyrrolo[2,3-d]pyrimidin-4-amine]
9 | < 1 µM | > 10 µM | COc1ccc(Nc2ccc(Cc3c[nH]c4ncnc(C)c34)c(F)n2)cn1 [Compound P-4002, [6-Fluoro-5-(4-methyl-7H-pyrrolo[2,3-d]pyrimidin-5-ylmethyl)-pyridin-2-yl]-(6-methoxy-pyridin-3-yl)-amine]
10 | < 0.1 µM | > 10 µM | CCc1ccc(Nc2ccc(Cc3c[nH]c4ncnc(OCCOC)c34)c(F)n2)cn1 [Compound P-4016, (6-Ethyl-pyridin-3-yl)-{6-fluoro-5-[4-(2-methoxy-ethoxy)-7H-pyrrolo[2,3-d]pyrimidin-5-ylmethyl]-pyridin-2-yl}-amine]
11 | < 0.1 µM | 5 to 10 µM | CCc1ccc(Nc2ccc(Cc3c[nH]c4ncnc(C5CC5)c34)c(F)n2)cn1 [Compound P-4028, [5-(4-Cyclopropyl-7H-pyrrolo[2,3-d]pyrimidin-5-ylmethyl)-6-fluoro-pyridin-2-yl]-(6-ethyl-pyridin-3-yl)-amine]
12 | < 1 µM | > 10 µM | COc1ccc(Nc2ccc(Cc3c[nH]c4ncnc(OC)c34)c(F)n2)cn1 [Compound P-4001, [6-Fluoro-5-(4-methoxy-7H-pyrrolo[2,3-d]pyrimidin-5-ylmethyl)-pyridin-2-yl]-(6-methoxy-pyridin-3-yl)-amine]
13 | < 1 µM | 5 to 10 µM | Fc1nc(NC2CCC(F)(F)CC2)ccc1Cc1c[nH]c2ncnc(NC3CC3)c12 [Compound P-4129, N-cyclopropyl-5-[[6-[(4,4-difluorocyclohexyl)amino]-2-fluoro-3-pyridyl]methyl]-7H-pyrrolo[2,3-d]pyrimidin-4-amine]
14 | < 1 µM | > 10 µM | COc1ncnc2[nH]cc(Cc3ccc(Nc4ccc(Cl)nc4)nc3F)c12 [Compound P-4003, (6-Chloro-pyridin-3-yl)-[6-fluoro-5-(4-methoxy-7H-pyrrolo[2,3-d]pyrimidin-5-ylmethyl)-pyridin-2-yl]-amine]
15 | < 0.1 µM | 5 to 10 µM | CCn1cc(Nc2ccc(Cc3c[nH]c4ncnc(OCCOC)c34)c(F)n2)cn1 [Compound P-4014, (1-Ethyl-1H-pyrazol-4-yl)-{6-fluoro-5-[4-(2-methoxy-ethoxy)-7H-pyrrolo[2,3-d]pyrimidin-5-ylmethyl]-pyridin-2-yl}-amine]
16 | < 0.1 µM | > 10 µM | Cc1cnc2[nH]cc(C(=O)c3ccc(Nc4ccc(C5CC5)nc4)nc3F)c2c1 [Compound P-3051, [6-(6-Cyclopropyl-pyridin-3-ylamino)-2-fluoro-pyridin-3-yl]-(5-methyl-1H-pyrrolo[2,3-b]pyridin-3-yl)-methanone]
17 | > 1 µM | > 10 µM | CCOc1ncnc2[nH]cc(C(=O)c3ccc(Nc4ccc(OC)nc4)nc3F)c12 [Compound P-4025, (4-Ethoxy-7H-pyrrolo[2,3-d]pyrimidin-5-yl)-[2-fluoro-6-(6-methoxy-pyridin-3-ylamino)-pyridin-3-yl]-methanone]
18 | < 0.1 µM | > 10 µM | CCc1ccc(Nc2ccc(C(=O)c3c[nH]c4ncc(C)cc34)c(F)n2)cn1 [Compound P-3049, [6-(6-Ethyl-pyridin-3-ylamino)-2-fluoro-pyridin-3-yl]-(5-methyl-1H-pyrrolo[2,3-b]pyridin-3-yl)-methanone]
19 | < 0.1 µM | 5 to 10 µM | O=C(c1ccc(Nc2ccc(C3CC3)nc2)nc1F)c1c[nH]c2ncccc12 [Compound P-3052, [6-(6-Cyclopropyl-pyridin-3-ylamino)-2-fluoro-pyridin-3-yl]-(1H-pyrrolo[2,3-b]pyridin-3-yl)-methanone]
20 | < 1 µM | > 10 µM | Cc1ccc(Nc2ccc(Cc3c[nH]c4ncnc(C5CC5)c34)c(F)n2)cn1 [Compound P-4030, [5-(4-Cyclopropyl-7H-pyrrolo[2,3-d]pyrimidin-5-ylmethyl)-6-fluoro-pyridin-2-yl]-(6-methyl-pyridin-3-yl)-amine]
21 | < 1 µM | > 10 µM | COc1ccc(Nc2ccc(Cc3c[nH]c4ncnc(C5CC5)c34)c(F)n2)cn1 [Compound P-4023, [5-(4-cyclopropyl-7H-pyrrolo[2,3-d]pyrimidin-5-ylmethyl)-6-fluoro-pyridin-2-yl]-(6-methoxy-pyridin-3-yl)-amine]
22 | < 1 µM | > 10 µM | FC1(F)CCC(Nc2ncc(Cc3c[nH]c4ncc(Cl)cc34)cn2)CC1 [Compound P-3004]
